Assay results taken from publication doi:10.1101/2021.03.24.436638v1 (biorxiv, 2021).

Target: T1, GlyT2 (wtGlyT2) (Rattus norvegicus, UniProt P58295)
T1 sequence (P58295 1-799): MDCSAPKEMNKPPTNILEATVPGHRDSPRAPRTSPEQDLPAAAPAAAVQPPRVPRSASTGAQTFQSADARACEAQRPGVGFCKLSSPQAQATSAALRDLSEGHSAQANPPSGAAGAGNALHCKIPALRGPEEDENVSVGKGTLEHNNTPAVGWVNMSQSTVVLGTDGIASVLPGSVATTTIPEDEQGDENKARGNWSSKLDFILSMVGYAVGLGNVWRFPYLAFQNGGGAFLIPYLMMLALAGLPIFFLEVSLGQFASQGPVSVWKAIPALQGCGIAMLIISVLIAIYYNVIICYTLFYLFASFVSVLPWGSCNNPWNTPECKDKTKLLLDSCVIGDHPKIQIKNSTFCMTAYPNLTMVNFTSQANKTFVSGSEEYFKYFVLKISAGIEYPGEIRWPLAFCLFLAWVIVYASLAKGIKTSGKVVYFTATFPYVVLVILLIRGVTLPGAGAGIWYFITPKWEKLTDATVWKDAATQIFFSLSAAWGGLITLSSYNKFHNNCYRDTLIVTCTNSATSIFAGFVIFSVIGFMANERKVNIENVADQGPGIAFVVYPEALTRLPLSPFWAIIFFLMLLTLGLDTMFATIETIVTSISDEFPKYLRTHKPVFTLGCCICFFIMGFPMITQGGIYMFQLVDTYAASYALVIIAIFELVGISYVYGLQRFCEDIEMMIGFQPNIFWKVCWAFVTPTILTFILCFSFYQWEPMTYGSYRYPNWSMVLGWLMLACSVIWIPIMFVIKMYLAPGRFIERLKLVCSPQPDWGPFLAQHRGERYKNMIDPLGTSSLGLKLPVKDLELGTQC
Assay: [3H]glycine uptake inhibition in transfected COS7 cells
Assay type: cell-based

For `CCCCC/C=C\C/C=C\C/C=C\C/C=C\CCCC(=O)NCC(=O)O` [N-arachidonoyl glycine], the IC50 was 67 ± 23 µM.
